Laboratory results: US9409876B2, “Bradykinin receptor antagonists and pharmaceutical compositions containing them” (DOMPE' FARMACEUTICI S.P.A., priority 2013, dated 2016)
Like-named read-outs stand apart in the source and are kept apart here.

Experiments:
[1] = system: CCI-induced mechanical allodynia; test: Chronic constriction model of pain, mechanical allodynia; format: in vivo, rat
Experimental: An evaluation of the in vivo activity of compound 8 (R,R) was performed by testing the inhibition potential in mechanical allodynia using the chronic constriction model of pain.
Male Sprague-Dawley (SD) derived rats weighing 180±20 g (at arrival) were provided by BioLasco Taiwan (under Charles River Laboratories Technology Licensee). Space allocation for 5 animals per cage was 45×23×21 cm and maintained in a controlled temperature (20-24° C.) and humidity (50%-80%) environment with 12 hours light/dark cycles for at least three days in Ricerca Biosciences, LLC (Taipei, Taiwan) Laboratory prior to use. Free access to standard lab chow for rats [MF-18 (Oriental Yeast Co., Ltd., Japan)] and tap water was granted. All aspects of this work including housing, experimentation and disposal of animals were performed in general accordance with the Guide for the Care and Use of Laboratory Animals (National Academy Press, Washington, D. C., 2010).
Neuropathic pain behavior was induced by ligation of the sciatic nerve according to the method described by Bennett and Xie [Bennett G. J. and Xie Y. K. A peripheral mononeuropathy in rat that produces disorders of pain sensation like those seen in man, Pain, (1988) 33:87-107]. Briefly, rats were anaesthetized under pentobarbital (50 mg/kg, 5 mL/kg, IP) anesthesia and the sciatic nerve was exposed at mid-thigh level. […]
The rats had access to food and water up to the time of the experiment, and then were placed under inverted Plexiglas cages on a wire mesh rack and allowed to acclimate for 20 to 30 minutes. Allodynia was evaluated using the Chaplin “up/down” method using von Frey hairs [Chaplan, S. R, Bach, F. W., Pogrel, J. W., Chung, J. M. and Yaksh, T. L. Quantitative assessment of tactile allodynia in the rat paw. […]
The threshold of response of the treated rats was compared to respective vehicle treated rats; two-way ANOVA followed by Bonferroni's test was used for comparison between vehicle and treated groups. […] The delta change value at each time point was also calculated. […]

[2] = Pharmacokinetics after IV administration, brain penetration assessment; format: in vivo, rat; settings: for concentration at 60 min / concentration at 240 min / concentration at 15 min: iv, 7.5 mg/kg
Experimental: In three of the rats tested in Example 56, indicated as R1, […], also the pharmacokinetic profile of compound 8 (R,R) was evaluated. The results are summarised in Tables III to IV and in FIGS. 1-4.
In tables III and V, T1/2 means the half-time of the compound, Tmax means the time at which the concentration of the compound reaches the maximum level, Cmax means the maximal concentration, Tlast means the latest time-point at which the concentration of the compound can be measured, Clast means the concentration at the latest time-point at which the concentration of the compound can be measured, AUClast means the area under the curve at the latest time-point at which the concentration of the compound can be measured, AUCinf_obs means the area under the curve which is infinitely extrapolated and MRTlast means the mean residence time at the latest time-point at which the concentration of the compound can be measured.
In tables IV and VI, LLOQ means lower limit of quantification.
Brain penetration was performed by IV administration at 7.5 mg/kg.

[3] = Metabolic stability in liver microsomes with NADPH; format: in vitro ADME; settings: Wistar, rat, microsomes 0.5 mg/ml, pH 7.4, with NADPH, read-out: intrinsic clearance (CLint)
Experimental: Metabolic stability of compound 8 (R,R) was also determined in rat wistar liver microsomes in the in the presence of NADPH.
The concentration of the compound 8 (R,R) was 1 μM and microsomes 0.5 mg/ml in phosphate buffer 0.1M pH 7.4 with NADPH.
The degradation of the substrates was measured in duplicate by LC/MS/MS during six time points of incubation.

[4] = IV 7.5 mg/kg, Time 480, Average
[5] = Sprague-Dawley (SD), rat, IV 7.5 mg/kg, Brain
[6] = Sprague-Dawley (SD), rat, IV 7.5 mg/kg, Plasma
[7] = Sprague-Dawley, rat, IV 7.5 mg/kg, Brain

## COc1ccccc1CN(C(=O)CC(C)C)[C@@H](C(=O)NC[C@H]1CCCO1)c1ccc(C)cc1 [Compound 8 (R,R), 3-methyl-N-(2-methoxybenzyl)-N-{[(1R)-1-(4-methylphenyl)]-2-oxo-2-[(2R)-(tetrahydrofuran-2-ylmethyl)amino]ethyl}butanamide]
[1]; 30 mg/kg IV, 2 and 3 hours post-dose
  significant reversal of CCI-induced mechanical allodynia: not at 2 and 3 hours post-dose
[1]; 30 mg/kg IV, 1 hour post-dose
  inhibition of CCI-induced mechanical allodynia: 37%
[1]; chronic constriction model of pain
  inhibitory activity on allodynia: strong inhibitory activity on allodynia
[2]; IV 7.5 mg/kg, Brain
  Tlast: 60 min
[2]; IV 7.5 mg/kg, Plasma
  Tlast: 240 min
[2]; IV 7.5 mg/kg, Time 15, Average
  Brain level: 635.1 ng/g
[2]; IV 7.5 mg/kg, Time 15, R1
  Brain level: 619.3 ng/g
[2]; IV 7.5 mg/kg, Time 15, R2
  Brain level: 446.05 ng/g
[2]; IV 7.5 mg/kg, Time 15, R3
  Brain level: 839.85 ng/g
[2]; IV 7.5 mg/kg, Time 240, Average
  Brain level: <LLOQ
[2]; IV 7.5 mg/kg, Time 240, R1
  Brain level: <LLOQ
[2]; IV 7.5 mg/kg, Time 240, R2
  Brain level: <LLOQ
[2]; IV 7.5 mg/kg, Time 240, R3
  Brain level: <LLOQ
[2]; [4]
  Brain level: <LLOQ
  plasma level: <LLOQ
[2]; IV 7.5 mg/kg, Time 480, R1
  Brain level: <LLOQ
  plasma level: <LLOQ
[2]; IV 7.5 mg/kg, Time 480, R2
  Brain level: <LLOQ
  plasma level: <LLOQ
[2]; IV 7.5 mg/kg, Time 480, R3
  Brain level: <LLOQ
  plasma level: <LLOQ
[2]; Sprague-Dawley (SD), rat, brain, Brain, read-out: Clast
  concentration at 60 min: 48.8 ng/mL
[2]; Sprague-Dawley (SD), rat, plasma, Plasma, read-out: Clast
  concentration at 240 min: 4.2 ng/mL
[2]; [5]
  AUC(0-t): 523 ng·h/mL
  MRT last: 11.2 min
[2]; [6]
  AUC(0-t): 1200 ng·h/mL
  MRT last: 15.9 min
  Tmax: 15 min
[2]; Sprague-Dawley (SD), rat, IV 7.5 mg/kg, Plasma, read-out: T½
  half-life: 12.5 min
[2]; Sprague-Dawley, rat, brain, Time 60, Average, read-out: Brain level
  concentration at 60 min: 48.8 ng/g
[2]; Sprague-Dawley, rat, brain, Time 60, R1, read-out: Brain level
  concentration at 60 min: 62.1 ng/g
[2]; Sprague-Dawley, rat, brain, Time 60, R2, read-out: Brain level
  concentration at 60 min: 34.6 ng/g
[2]; Sprague-Dawley, rat, brain, Time 60, R3, read-out: Brain level
  concentration at 60 min: 49.5 ng/g
[2]; Sprague-Dawley, rat, brain, IV 7.5 mg/kg, average on the AUC ratio
  Kp: ~0.43
[2]; Sprague-Dawley, rat, plasma, Time 15, Average, read-out: Plasma level
  concentration at 15 min: 1400 ng/mL
[2]; Sprague-Dawley, rat, plasma, Time 15, R1, read-out: Plasma level
  concentration at 15 min: 1600 ng/mL
[2]; Sprague-Dawley, rat, plasma, Time 15, R2, read-out: Plasma level
  concentration at 15 min: 1140 ng/mL
[2]; Sprague-Dawley, rat, plasma, Time 15, R3, read-out: Plasma level
  concentration at 15 min: 1470 ng/mL
[2]; Sprague-Dawley, rat, plasma, Time 60, Average, read-out: Plasma level
  concentration at 60 min: 162 ng/mL
[2]; Sprague-Dawley, rat, plasma, Time 60, R1, read-out: Plasma level
  concentration at 60 min: 123 ng/mL
[2]; Sprague-Dawley, rat, plasma, Time 60, R2, read-out: Plasma level
  concentration at 60 min: 157 ng/mL
[2]; Sprague-Dawley, rat, plasma, Time 60, R3, read-out: Plasma level
  concentration at 60 min: 205 ng/mL
[2]; Sprague-Dawley, rat, plasma, Time 240, Average, read-out: Plasma level
  concentration at 240 min: 4.2 ng/mL
[2]; Sprague-Dawley, rat, plasma, Time 240, R1, read-out: Plasma level
  concentration at 240 min: 4.05 ng/mL
[2]; Sprague-Dawley, rat, plasma, Time 240, R2, read-out: Plasma level
  concentration at 240 min: 3.35 ng/mL
[2]; Sprague-Dawley, rat, plasma, Time 240, R3, read-out: Plasma level
  concentration at 240 min: 5.2 ng/mL
[2]; [7]
  Cmax: 635 ng/g
  Tmax: 15 min
[2]; Sprague-Dawley, rat, IV 7.5 mg/kg, Plasma
  Cmax: 1400 ng/mL
[3]
  microsomal CLint at 1 μM: 851 µL/min/mg
